Measured values as given in US9856232B1, “Dihydropyrimidinone derivatives” (KING SAUD UNIVERSITY, priority 2017, dated 2018).
Marks after values point to notes of the source that are not given here.

Experiments:
Assay type in all cases: in vivo, Albino Wistar rats
[1] = tested on: Gastric lesions induced by 80% ethanol; assay: Gastric lesions induced by ethanol (ulcer index by severity scores); conditions: Rattus norvegicus, po, vs 80% EtOH group, read-out: Gastric lesions induced by 80% ethanol, % change; for inhibition in vivo at 12.5 mg/kg: compound 12.5 mg/kg; for inhibition in vivo at 25 mg/kg: compound 25 mg/kg; for inhibition in vivo at 50 mg/kg: compound 50 mg/kg
Description: (§1) Albino Wistar rats of either sex, approximately the same age, weighing 150 to 200 g and fed on a diet of standard chow were used in this study. They were randomly divided into experimental groups of six rats each. Compounds (N-1 to N-18) 12.5, 25, and 50 mg/kg were given orally in the anti-ulcer studies and intraperitoneally for gastric secretion evaluation. The rats were sacrificed, and the stomachs removed and opened along the greater curvature, After washing with saline, the gastric lesions were quantified by a person unaware of the treatments. The animal study protocol was approved by the Research and Ethics Committee of the Experimental Animal Care Society, College of Pharmacy, King Saud University, Riyadh, Saudi Arabia.
Gastric lesions induced by ethanol: Albino rats of either sex weighing between (150-200 g) are divided into groups. The animals were fasted for 24 hours with free access to water. Animals were given test drugs or standard drug. One hour later 1 mL/200 gm of 80% ethanol is administered orally to each animal. The animals were anaesthetized 1 hour latter with anesthetic ether and stomach was incised along the greater curvature and ulceration was scored. The number of ulcers and the length of each ulcer were measured. Ulcer index was calculated using severity scores. The mucosal damage was examined by means of a magnifying glass. For each stomach the mucosal damage was assessed according to the following scoring system: 0.5 redness; 1.0 spot ulcers; 1.5 hemorrhagic streaks; 2.0 ulcers<3, but≦5; 3.0 ulcers>5. Table 1 provides the effect of compounds on gastric lesions induced by 80% ethanol (mean±SE).

[2] = tested on: gastric mucosa of rats treated with 80% Ethanol; assay: Histopathological evaluation of gastric tissue; conditions: 50 mg/kg; FIG. 15B-15F
Description: Histopathological evaluation: Gastric tissue samples were fixed in neutral buffered formalin for 24 hours. Sections of gastric tissue were histopathologically examined to study the ulcerogenic and/or anti-ulcerogenic activity of compounds (N-3, N-8, N-11, and N-15). The tissues were fixed in 10% buffered formalin and processed using a VIP tissue processor. The processed tissues were embedded in paraffin blocks and sections about […] thick were cut using an American optical rotary microtome. These sections were stained with haematoxylin and eosin using routine procedures. The slides were examined microscopically for pathomorphological changes such as congestion, hemorrhage, edema, and erosions using an arbitrary scale for severity assessment of these changes (FIGS. 3-14).

[3] = tested on: Hypothermic restraint stress-induced intraluminal bleeding and gastric lesion; assay: Hypothermic restraint stress-induced ulcers; parameters: Gastric Lesion Ulcer Index: scale not given here; conditions: hypothermic restraint 3 h, mean ± SE
[4] = tested on: gastric wall mucus in stomach tissue, change induced by 80% ethanol; assay: Determination of gastric wall mucus (GWM); conditions: i.p, 80% ethanol-treated rats, mean ± SE
Description: as §1
Determination of gastric wall mucus (GWM): Gastric wall mucus was determined according to the modified procedure. The glandular segment of the stomach was separated from the rumen of the stomach, weighed, and transferred immediately to 10 mL of 0.1% w/v Alcian blue solution (in […] sucrose solution buffered with […] sodium acetate at pH 5. Tissue was stained for 2 hours in Alcian blue, and excess dye was removed by two successive rinses with 10 mL of […] sucrose, firstly after 15 minutes and then after 45 minutes. Dye complexed with the gastric wall mucus was extracted with 10 ml of […] magnesium chloride which was intermittently shaken for 1 minute at 30 minute intervals for 2 hours. Four milliliters of blue extract were then vigorously shaken with an equal volume of diethyl ether. The resulting emulsion was centrifuged at 4000 r/min for 10 minutes and the absorbance of the aqueous layer was recorded at 580 nm. The quantity of Alcian blue extracted per gram of wet glandular tissue was then calculated. Table 6 provides the effect of compounds on the change in gastric wall mucus in stomach tissue induced by 80% ethanol (mean±SE).

[5] = tested on: Gastric lesions induced by necrotizing agents (80% ethanol, 0.2 mol/L NaOH or 25% NaCl); assay: Gastric lesions induced by necrotizing agents (cytoprotection); conditions: i.p, 30 min before necrotizing agent, mean ± SE
[6] = tested on: Indomethacin-induced gastric mucosal lesions; assay: Gastric lesions induced by Indomethacin; parameters: scale not given here; conditions: i.p, 30 min before Indomethacin 30 mg/kg, mean ± SE
Excerpt: as §1, with “Compounds (N-1 to N-18) 12.5, 25, and 50 mg/kg were given orally in the anti-ulcer studies and intraperitoneally for gastric secretion evaluation.” left out
Gastric lesions induced by Indomethacin: Indomethacin was suspended in 1.0% carboxymethylcellulose (CMC) in water (6 mg/mL) and administered orally to the 36 hour fasted rats at a dose of 30 mg/kg body weight. Control rats were treated similarly with an equivalent amount of vehicle. […] The animals were sacrificed 6 hours after treatment. The stomachs were excised, rinsed with normal saline and examined for ulceration. Table 3 provides the effect of compounds on Indomethacin-induced gastric mucosal lesions (mean±SE).

[7] = tested on: gastric mucosal non-protein sulfhydryls, induced by 80% ethanol; assay: Estimation of non-protein sulfhydryls (NP-SH); conditions: stomach tissue, 80% ethanol-treated rats, mean ± SE
Description: as §1
Estimation of non-protein sulfhydryls (NP_SH): Gastric mucosal non-protein sulfhydryls were measured according to the method. The glandular part of the stomach was homogenized in ice-cold 0.02 mmol/L ethylenediaminetetraacetic acid (EDTA). Aliquots of 5 mL of the homogenates were mixed in 15 mL test tubes with 4 mL of distilled water and 1 mL of 50% trichloroacetic acid (TCA). The tubes were shaken intermittently for 10 minutes and centrifuged at 3000 r/min. Two milliliters of supernatant were mixed with 4 mL of 0.4 mol/L Tris buffer at pH 8.9. Then 0.1 ML of 5, 5′-dithio-bis (2-nitrobenzoic acid) (DTNB) was added and the sample was shaken. The absorbance was measured within 5 minutes of DTNB addition at 412 nm against a reagent blank.

Row | SMILES | inhibition in vivo at 12.5 mg/kg [1] [%] | inhibition in vivo at 25 mg/kg [1] [%] | inhibition in vivo at 50 mg/kg [1] [%] | Gastric section, effect on gastric mucosa (histology) [2] | Gastric Lesion Ulcer Index ([3]; 12.5 mg/kg) | Intraluminal Bleeding Score ([3]; 12.5 mg/kg) | Gastric Lesion Ulcer Index ([3]; 50 mg/kg) | Intraluminal Bleeding Score ([3]; 50 mg/kg) | Gastric Wall Mucus ([4]; 12.5 mg/kg) | Gastric Wall Mucus ([4]; 25 mg/kg) | Gastric Wall Mucus ([4]; 50 mg/kg) | Ulcer Index, 0.2 mol/L NaOH ([5]; 12.5 mg/kg) | Ulcer Index, 25% NaCl ([5]; 12.5 mg/kg) | Ulcer Index, 80% EtOH ([5]; 12.5 mg/kg) | Ulcer Index, 0.2 mol/L NaOH ([5]; 25 mg/kg) | Ulcer Index, 25% NaCl ([5]; 25 mg/kg) | Ulcer Index, 80% EtOH ([5]; 25 mg/kg) | Ulcer Index, 0.2 mol/L NaOH ([5]; 50 mg/kg) | Ulcer Index, 25% NaCl ([5]; 50 mg/kg) | Ulcer Index, 80% EtOH ([5]; 50 mg/kg) | other results
1 | COc1ccccc1C1NC(=O)NC=C1C(=O)c1ccc(N2CCCCC2)cc1 (centres unmarked) [Compound N-8, 4-(2-Methoxyphenyl)-5-[4-(piperidin-1-yl)benzoyl]-3,4-dihydropyrimidin-2(1H)-one] | 33.3 | 50 | 53.3 | intact normal mucosa | 29.83 ± 1.50 | 3.50 ± 0.42 | 18.66 ± 0.55 | 2.50 ± 0.42 | 206.39 ± 7.18^b μg/g | 212.00 ± 6.40^b μg/g | 244.65 ± 5.36**^b μg/g | 6.66 ± 0.33 | 6.00 ± 0.25 | 7.00 ± 0.36 | 5.33 ± 0.71 | 5.00 ± 0.44 | 6.50 ± 0.42 | 3.83 ± 0.30 | 3.33 ± 0.30 | 5.83 ± 0.30 | Gastric Lesion Ulcer Index ([3]; 25 mg/kg): 27.66 ± 1.60; Intraluminal Bleeding Score ([3]; 25 mg/kg): 3.33 ± 0.21; Ulcer Index, indomethacin-induced gastric mucosal lesions ([6]; 12.5 mg/kg): 33.00 ± 1.52; Ulcer Index, indomethacin-induced gastric mucosal lesions ([6]; 25 mg/kg): 29.50 ± 1.58; Ulcer Index, indomethacin-induced gastric mucosal lesions ([6]; 50 mg/kg): 28.66 ± 1.45; NP-SH ([7]; dose 12.5): 3.49 ± 0.16^b nmol/g; NP-SH ([7]; dose 25): 3.61 ± 0.12^b nmol/g; NP-SH ([7]; dose 50): 4.61 ± 0.27**^b nmol/g
2 | CN(C)c1ccc(C2NC(=O)NC=C2C(=O)c2ccc(N3CCCCC3)cc2)cc1 (centres unmarked) [Compound N-11, 4-(4-Dimethylaminophenyl)-5-[4-(piperidin-1-yl)benzoyl]-3,4-dihydropyrimidin-2(1H)-one] | 22.5 | 48.3 | 61.2 | intact normal mucosa | 29.83 ± 1.51 | 3.66 ± 0.33 | 21.00 ± 0.51 | 2.00 ± 0.36 | 192.87 ± 12.84^b μg/g | 224.88 ± 4.64*^b μg/g | 217.36 ± 3.31**^b μg/g | 6.33 ± 0.42 | 6.00 ± 0.36 | 7.16 ± 0.30 | 3.66 ± 0.21 | 4.83 ± 0.40 | 6.16 ± 0.30 | 3.66 ± 0.33 | 3.83 ± 0.30 | 4.83 ± 0.30 | Gastric Lesion Ulcer Index ([3]; 75 mg/kg): 29.00 ± 1.21; Intraluminal Bleeding Score ([3]; 75 mg/kg): 2.66 ± 0.33; Ulcer Index, indomethacin-induced gastric mucosal lesions ([6]; 12.5 mg/kg): 33.00 ± 1.03; Ulcer Index, indomethacin-induced gastric mucosal lesions ([6]; 25 mg/kg): 30.66 ± 1.28; Ulcer Index, indomethacin-induced gastric mucosal lesions ([6]; 50 mg/kg): 28.31 ± 1.78; NP-SH ([7]; dose 12.5): 2.93 ± 0.11^b nmol/g; NP-SH ([7]; dose 25): 3.40 ± 0.18^b nmol/g; NP-SH ([7]; dose 50): 4.35 ± 0.11***^b nmol/g
3 | COc1ccc(C2NC(=O)NC=C2C(=O)c2ccc(N3CCCCC3)cc2)c(OC)c1OC (centres unmarked) [Compound N-15, 4-(2,3,4-Trimethoxyphenyl)-5-[4-(piperidin-1-yl)benzoyl]-3,4-dihydropyrimidin-2(1H)-one] | 35.4 | 54.8 | 67.7 | intact normal mucosa | 25.66 ± 1.08 | 2.16 ± 0.30 | 12.33 ± 0.84 | 1.33 ± 0.33 | 231.78 ± 4.77*^b μg/g | 248.09 ± 7.69**^b μg/g | 275.32 ± 5.37***^b μg/g | 3.50 ± 0.22 | 3.66 ± 0.33 | 4.66 ± 0.33 | 2.16 ± 0.30 | 2.66 ± 0.33 | 2.66 ± 0.33 | 1.33 ± 0.42 | 1.66 ± 0.33 | 2.16 ± 0.30 | Gastric Lesion Ulcer Index ([3]; 25 mg/kg): 16.66 ± 0.33; Intraluminal Bleeding Score ([3]; 25 mg/kg): 1.66 ± 0.21; Ulcer Index, indomethacin-induced gastric mucosal lesions ([6]; 12.5 mg/kg): 26.33 ± 1.30; Ulcer Index, indomethacin-induced gastric mucosal lesions ([6]; 50 mg/kg): 14.50 ± 1.64; NP-SH ([7]; dose 12.5): 3.38 ± 0.07^b nmol/g; NP-SH ([7]; dose 25): 4.29 ± 0.24**^b nmol/g; NP-SH ([7]; dose 50): 4.92 ± 0.30***^b nmol/g
